Results on 22 compounds are retold here after US8853424B2 (Japan Science and Technology Agency, priority 2008, dated 2014).

The test system of one experiment is transglutaminase (TGase). Put plainly: Measurement of TG (TGase inhibitory activity, monodansyl cadaverine / N,N-dimethylcasein fluorescence, FDSS 3000). The format is biochemical. Put shortly:
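Compound (1 μL of 10 mM stock) added to 0.1 mL reaction: 100 mM HEPES-NaOH pH 7.5, 1 mM CaCl2, 20 μM monodansyl cadaverine, 0.05 mg/mL N,N-dimethylcasein, 5 μg/mL TGase. Rate of fluorescence change at 340 nm measured; DMSO control set to 100; TG50 is the concentration halving activity.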

The subject of experiment [1] is Truncated N-terminal huntington 150 Q-EGFP-Neuron 2a cells. Nature of the experiment: Measurement of x-Fold (polyglutamine aggregation inhibitory activity). The experiment is classed as cell-based. As for the experimental part: In the present invention, the polyglutamine aggregation inhibitory activity (x-Fold) can be measured, for example, by the method described in the Example.
The number of the aggregated cells, and the total number of cells were counted by Array Scan V T1 (manufactured by Cellomics, Pittuburg, USA), and the ratio of the aggregated cells to the total number of cells was determined (x-Fold). […]

[2] abbreviates: TGase activity with compound (10 mM, 1 μL in 0.1 ml enzyme reaction solution), DMSO control taken as 100.
The mark [3] stands for this setting: TGase inhibitory activity measurement, unit not given.
The mark [4] stands for this setting: polyglutamine aggregation, Truncated N-terminal huntington 150 Q-EGFP-Neuron 2a cells.
The mark [5] stands for this setting: ratio of aggregated cells to total number of cells, compound 20 μM, 20 hr, almost 1 without compound, smaller = stronger inhibition.
The mark [6] stands for this setting: polyglutamine aggregation inhibitory activity, Table 1.

For the compound `CNCCOB(c1ccccc1)c1ccc(COCc2ccc(B(OCCNC)c3ccccc3)cc2)cc1` [Example 400, bis(4,4′-(phenyl-N-methylaminoethoxyboryl)benzyl)ether], the “TGase activity remaining (% of DMSO control = 100)” value in the experiment with transglutaminase (TGase) (setting [2]) and in the experiment on transglutaminase (TGase) (setting [3]) was 52 each time. In addition, the x-Fold in experiment [1] (setting [4]) and in experiment [1] (setting [5]) was 1.01 each time.
As to `CN(C)CCOB(c1ccc(COc2ccc(B(OCCN(C)C)c3ccc(C(F)(F)F)cc3)cc2)cc1)c1ccc(C(F)(F)F)cc1` [Example 401, (4′-trifluoromethylphenyl-N,N-dimethylaminoethoxyboryl)-4-phenyl (4′-trifluoromethylphenyl-N,N-dimethylaminoethoxyborylbenzyl)ether], the “TGase activity remaining (% of DMSO control = 100)” value with transglutaminase (TGase) (setting [2]) and in the experiment on transglutaminase (TGase) (setting [3]) was 121 each time. Moreover, the x-Fold in experiment [1] (setting [4]) and in experiment [1] (setting [5]) was 0.95 each time.
`CNCCOB(c1ccc(COc2ccc(B(OCCNC)c3ccc(C(F)(F)F)cc3)cc2)cc1)c1ccc(C(F)(F)F)cc1` [Example 402, (4′-trifluoromethylphenyl-N-methylaminoethoxyboryl)-4-phenyl(4′-trifluoromethylphenyl-N-methylaminoethoxyboryl-4-benzyl)ether]: the “TGase activity remaining (% of DMSO control = 100)” value in the experiment with transglutaminase (TGase) (setting [2]) and with transglutaminase (TGase) (setting [3]) was −12 each time. Also, the x-Fold in experiment [1] (setting [4]) and in experiment [1] (setting [5]) was 0.57 throughout.
`OB(c1ccsc1)c1ccc2sc3ccc(B(O)c4ccsc4)cc3c2c1` [Example 406, 2,8-di(3-thiophenylhydroxyboryl)dibenzothiophene]: the “TGase activity remaining (% of DMSO control = 100)” value in the experiment with transglutaminase (TGase) (setting [2]) and in the experiment with transglutaminase (TGase) (setting [3]) was 61 each time. Moreover, the x-Fold in experiment [1] (setting [4]) and in experiment [1] (setting [5]) was 0.85 in each case.
For the compound `OB(c1ccc(COCc2ccc(B(O)c3ccc(C(F)(F)F)cc3)cc2)cc1)c1ccc(C(F)(F)F)cc1` [Example 407, bis(4,4′-(p-trifluoromethylphenyl-hydroxyboryl)benzyl)ether], the “TGase activity remaining (% of DMSO control = 100)” value in the experiment with transglutaminase (TGase) (setting [2]) came out at 77. Moreover, in experiment [1] (setting [5]), the x-Fold was 1.02.
As to `NCCOB(c1ccccc1)c1ccc2sc3ccc(B(OCCN)c4ccccc4)cc3c2c1` [Example 408, 2,8-di(phenylaminoethoxyboryl)dibenzothiophene], the “TGase activity remaining (% of DMSO control = 100)” value with transglutaminase (TGase) (setting [2]) and in the experiment on transglutaminase (TGase) (setting [3]) was 108 throughout. Also, the x-Fold in experiment [1] (setting [4]) and in experiment [1] (setting [5]) was 0.92 in each case.
In the case of `OB(c1ccc(COCc2ccc(B(O)c3ccc(F)c(F)c3)cc2)cc1)c1ccc(F)c(F)c1` [Example 411, bis(4,4′-(3,4-difluorophenyl-hydroxyboryl)benzyl)ether], the “TGase activity remaining (% of DMSO control = 100)” value in the experiment on transglutaminase (TGase) (setting [2]) and in the experiment on transglutaminase (TGase) (setting [3]) was 138 in each case. In addition, the x-Fold in experiment [1] (setting [4]) and in experiment [1] (setting [5]) was 0.90 in each case.
Turning to `COc1ccc(B(OCCN(C)C)c2ccc(COCc3ccc(B(OCCN(C)C)c4ccc(OC)cc4)cc3)cc2)cc1` [Example 414, bis(4,4′-(p-methoxyphenyl-N,N-dimethylaminoethoxyboryl)benzyl)ether], the “TGase activity remaining (% of DMSO control = 100)” value in the experiment with transglutaminase (TGase) (setting [2]) and with transglutaminase (TGase) (setting [3]) was 128 in each case. For the same compound, the x-Fold in experiment [1] (setting [4]) and in experiment [1] (setting [5]) was 0.90 each time.
Consider `COc1ccc(B(OC(=O)C(N)CCN)c2ccc(COCc3ccc(B(OC(=O)C(N)CCN)c4ccc(OC)cc4)cc3)cc2)cc1` (centres unmarked) [Example 415, bis(4,4′-(p-methoxyphenyl-2,4-diaminobutyric acid boryl)benzyl)ether], for which the “TGase activity remaining (% of DMSO control = 100)” value with transglutaminase (TGase) (setting [2]) and in the experiment with transglutaminase (TGase) (setting [3]) was 130 throughout. In addition, the x-Fold in experiment [1] (setting [4]) and in experiment [1] (setting [5]) was 0.90 in each case.
As for `NCCOB(c1ccc(COCc2ccc(B(OCCN)c3ccc(F)c(F)c3)cc2)cc1)c1ccc(F)c(F)c1` [Example 416, bis(4,4′-(3,4-difluorophenyl-aminoethoxyboryl)benzyl)ether], the “TGase activity remaining (% of DMSO control = 100)” value with transglutaminase (TGase) (setting [2]) and in the experiment with transglutaminase (TGase) (setting [3]) was 114 in each case. Further, the x-Fold in experiment [1] (setting [4]) and in experiment [1] (setting [5]) was 0.92 throughout.
For the compound `CNCCOB(c1ccc(COCc2ccc(B(OCCNC)c3ccc(F)c(F)c3)cc2)cc1)c1ccc(F)c(F)c1` [Example 417, bis(4,4′-(3,4-difluorophenyl-N-methylaminoethoxyboryl)benzyl)ether], the “TGase activity remaining (% of DMSO control = 100)” value in the experiment on transglutaminase (TGase) (setting [2]) and in the experiment on transglutaminase (TGase) (setting [3]) was 91 each time. In addition, the x-Fold in experiment [1] (setting [4]) and in experiment [1] (setting [5]) was 1.01 throughout.
For `CN(C)CCOB(c1ccc(COCc2ccc(B(OCCN(C)C)c3ccc(F)c(F)c3)cc2)cc1)c1ccc(F)c(F)c1` [Example 418, bis(4,4′-(3,4-difluorophenyl-N,N-dimethylaminoethoxyboryl)benzyl)ether], the “TGase activity remaining (% of DMSO control = 100)” value in the experiment with transglutaminase (TGase) (setting [2]) and in the experiment with transglutaminase (TGase) (setting [3]) was 45 each time. Also, the x-Fold in experiment [1] (setting [4]) and in experiment [1] (setting [5]) was 1.02 in each case.
In the case of `NCCNCCOB(c1ccc(COCc2ccc(B(OCCNCCN)c3ccc(F)c(F)c3)cc2)cc1)c1ccc(F)c(F)c1` [Example 419, bis(4,4′-(3,4-difluorophenyl-N-aminoethylaminoethoxyboryl)benzyl)ether], the “TGase activity remaining (% of DMSO control = 100)” value in the experiment on transglutaminase (TGase) (setting [2]) was determined as 140; with transglutaminase (TGase) (setting [3]), 140; in the experiment on transglutaminase (TGase) (TGase inhibitory activity value, Table 1), 108. The x-Fold in experiment [1] (setting [6]) is reported as 1.02; in experiment [1] (setting [4]) it was 0.90; in experiment [1] (setting [5]), 0.90.
With `COc1ccc(C(OB(c2ccccc2)c2ccc(COc3ccc(B(OC(c4ccc(OC)cc4)c4ccccn4)c4ccccc4)cc3)cc2)c2ccccn2)cc1` (centres unmarked) [Example 430, 4-(phenyl-p-methoxyphenyl-2-pyridylmethoxyboryl)-phenyl 4′-(phenyl-p-methoxyphenyl-2-pyridylmethoxyboryl)benzylether], the “TGase activity remaining (% of DMSO control = 100)” value with transglutaminase (TGase) (setting [2]) and in the experiment with transglutaminase (TGase) (setting [3]) was 106 in each case. Further, the x-Fold in experiment [1] (setting [4]) and in experiment [1] (setting [5]) was 1.03 each time.
For the compound `c1ccc(B(OC2CCCNC2)c2ccc(Oc3ccc(B(OC4CCCNC4)c4ccccc4)cc3)cc2)cc1` (centres unmarked) [Example 431, bis(4,4′-(phenyl-3-piperidyloxyboryl)phenyl)ether], the “TGase activity remaining (% of DMSO control = 100)” value with transglutaminase (TGase) (setting [2]) is given as 118. The x-Fold in experiment [1] (setting [6]) is 0.57; in experiment [1] (setting [5]), 1.02.
For the compound `NCC(N)C(=O)OB(c1ccccc1)c1ccc(Oc2ccc(B(OC(=O)C(N)CN)c3ccccc3)cc2)cc1` (centres unmarked) [Example 436, bis(4,4′-(phenyl-2,3-diaminopropionic acid boryl)phenyl)ether], the “TGase activity remaining (% of DMSO control = 100)” value in the experiment with transglutaminase (TGase) (setting [2]) and with transglutaminase (TGase) (setting [3]) was 104 each time. The x-Fold is reported as 0.73 in experiment [1] (setting [6]), 0.85 in experiment [1] (setting [4]) and 0.85 in experiment [1] (setting [5]).
Consider `NCCCCC(N)C(=O)OB(c1ccccc1)c1ccc(Oc2ccc(B(OC(=O)C(N)CCCCN)c3ccccc3)cc2)cc1` (centres unmarked) [Example 437, bis(4,4′-(phenyl-lysineboryl)phenyl)ether], for which the “TGase activity remaining (% of DMSO control = 100)” value in the experiment with transglutaminase (TGase) (setting [2]) and in the experiment on transglutaminase (TGase) (setting [3]) was 119 in each case. Further, the x-Fold in experiment [1] (setting [4]) and in experiment [1] (setting [5]) was 0.85 in each case.
Consider `OB(c1ccc(Oc2ccc(B(O)c3cccc4ccccc34)cc2)cc1)c1cccc2ccccc12` [Example 439, bis(4,4′-(naphthylhydroxyboryl)phenyl)ether], for which the “TGase activity remaining (% of DMSO control = 100)” value with transglutaminase (TGase) (setting [2]) and in the experiment with transglutaminase (TGase) (setting [3]) was 33 each time. The x-Fold in experiment [1] (setting [4]) and in experiment [1] (setting [5]) was 0.54 in each case.
On to `Cc1ccc(B(O)c2ccc(Oc3ccc(B(O)c4ccc(C)cc4)cc3)cc2)cc1` [Example 440, bis(4,4′-(tolylhydroxyboryl)phenyl)ether], for which the “TGase activity remaining (% of DMSO control = 100)” value in the experiment on transglutaminase (TGase) (setting [2]) and in the experiment on transglutaminase (TGase) (setting [3]) was 63 each time. For the same compound, the x-Fold in experiment [1] (setting [4]) and in experiment [1] (setting [5]) was 0.69 in each case.
Turning to `NCCOB(c1ccc(Oc2ccc(B(OCCN)c3cccc4ccccc34)cc2)cc1)c1cccc2ccccc12` [Example 441, bis(4,4′-(naphthyl-aminoethoxyboryl)phenyl)ether], the “TGase activity remaining (% of DMSO control = 100)” value in the experiment with transglutaminase (TGase) (setting [2]) and in the experiment on transglutaminase (TGase) (setting [3]) was −1 each time. Further, the x-Fold in experiment [1] (setting [4]) and in experiment [1] (setting [5]) was 0.58 in each case.
As to `CN(C)CCOB(c1ccc(Oc2ccc(B(OCCN(C)C)c3cccc4ccccc34)cc2)cc1)c1cccc2ccccc12` [Example 442, bis(4,4′-(naphthyldimethylaminoethoxyboryl)phenyl)ether], the “TGase activity remaining (% of DMSO control = 100)” value with transglutaminase (TGase) (setting [2]) and in the experiment on transglutaminase (TGase) (setting [3]) was 102 throughout. In addition, the x-Fold in experiment [1] (setting [6]) is reported as 0.92; in experiment [1] (setting [4]), 0.58; in experiment [1] (setting [5]), 0.58.
As to `NCCC(N)C(=O)OB(c1ccc(Oc2ccc(B(OC(=O)C(N)CCN)c3cccc4ccccc34)cc2)cc1)c1cccc2ccccc12` (centres unmarked) [Example 445, bis(4,4′-(naphthyl 2,4-diaminopropionic acid boryl)phenyl)ether], the “TGase activity remaining (% of DMSO control = 100)” value in the experiment with transglutaminase (TGase) (setting [2]) and with transglutaminase (TGase) (setting [3]) was 108 in each case. Also, the x-Fold in experiment [1] (setting [4]) and in experiment [1] (setting [5]) was 0.49 each time.
